Measurements published in ChEMBL document CHEMBL1201862, “PubChem BioAssay data set” (2004).
Activity calls are given as the source filed them.

Experiments:
H4 = assay: Luminescence Cell-Based Dose Response HTS to Identify Activators of 5'UTR Stem-Loop Driven Prion Protein mRNA Translation in H4 Neuroglioblastoma Cells. [Related pubchem assays: 1829 (Project Summary), 1814 (Primary HTS)]; type: functional; settings: Homo sapiens
Cytochrome P450 3A4 = Cytochrome P450 3A4 (Homo sapiens, UniProt P08684);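 also: CYP3A4 tested as one member of a cytochrome P450 panel screen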
Sequence of Cytochrome P450 3A4 (P08684 whole entry): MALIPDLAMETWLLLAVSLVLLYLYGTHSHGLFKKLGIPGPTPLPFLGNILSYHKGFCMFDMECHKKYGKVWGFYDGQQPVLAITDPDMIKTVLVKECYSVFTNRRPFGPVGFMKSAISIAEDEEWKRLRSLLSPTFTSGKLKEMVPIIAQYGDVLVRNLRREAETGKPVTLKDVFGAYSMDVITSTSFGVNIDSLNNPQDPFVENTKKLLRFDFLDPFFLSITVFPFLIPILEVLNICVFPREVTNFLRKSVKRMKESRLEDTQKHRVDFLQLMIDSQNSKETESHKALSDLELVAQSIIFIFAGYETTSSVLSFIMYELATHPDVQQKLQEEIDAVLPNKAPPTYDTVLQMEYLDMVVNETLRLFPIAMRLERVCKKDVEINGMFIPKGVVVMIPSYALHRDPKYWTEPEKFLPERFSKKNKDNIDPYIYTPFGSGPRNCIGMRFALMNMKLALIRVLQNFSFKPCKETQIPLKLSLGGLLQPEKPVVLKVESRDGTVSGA

Cytochrome P450 2C9 = Cytochrome P450 2C9 (Homo sapiens, UniProt P11712)
Sequence of Cytochrome P450 2C9 (P11712 whole entry): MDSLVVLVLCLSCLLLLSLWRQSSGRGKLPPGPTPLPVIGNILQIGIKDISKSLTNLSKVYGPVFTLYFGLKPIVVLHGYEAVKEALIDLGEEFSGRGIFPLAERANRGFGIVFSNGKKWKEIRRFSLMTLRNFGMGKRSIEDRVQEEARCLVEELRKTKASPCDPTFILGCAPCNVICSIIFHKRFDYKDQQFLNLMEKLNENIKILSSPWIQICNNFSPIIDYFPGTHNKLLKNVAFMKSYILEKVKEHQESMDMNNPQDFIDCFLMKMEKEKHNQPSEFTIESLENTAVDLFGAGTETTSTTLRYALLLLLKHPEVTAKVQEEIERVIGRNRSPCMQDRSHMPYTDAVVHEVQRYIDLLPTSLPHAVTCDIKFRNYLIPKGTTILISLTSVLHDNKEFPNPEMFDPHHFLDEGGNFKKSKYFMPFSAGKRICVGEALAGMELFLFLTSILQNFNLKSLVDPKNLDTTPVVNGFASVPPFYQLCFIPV

Cytochrome P450 2D6 = Cytochrome P450 2D6 (Homo sapiens, UniProt P10635);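 also: CYP2D6 member of a cytochrome P450 panel assay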
Sequence of Cytochrome P450 2D6 (P10635 whole entry): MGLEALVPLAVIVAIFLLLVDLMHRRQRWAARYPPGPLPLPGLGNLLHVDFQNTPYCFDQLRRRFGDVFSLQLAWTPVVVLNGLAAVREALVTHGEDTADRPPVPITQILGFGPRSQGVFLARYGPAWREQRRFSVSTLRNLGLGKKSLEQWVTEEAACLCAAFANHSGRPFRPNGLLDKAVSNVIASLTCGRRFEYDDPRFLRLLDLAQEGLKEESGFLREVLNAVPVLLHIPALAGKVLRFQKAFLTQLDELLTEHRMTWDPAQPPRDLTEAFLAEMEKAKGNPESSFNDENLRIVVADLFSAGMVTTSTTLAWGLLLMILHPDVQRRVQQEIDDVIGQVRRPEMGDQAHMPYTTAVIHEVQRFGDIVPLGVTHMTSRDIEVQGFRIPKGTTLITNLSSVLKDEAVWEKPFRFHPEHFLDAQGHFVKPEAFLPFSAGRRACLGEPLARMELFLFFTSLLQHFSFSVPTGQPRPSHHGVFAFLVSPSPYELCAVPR

[1] = Trypanosoma cruzi growth suppression in host cells – NIH3T3 host cells, beta-gal luminescence, confirmation (AID 2044); type: functional, cell-based;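 also: intracellular parasites grown in NIH/3T3 mouse fibroblasts as host cells; luminescent beta-galactosidase reporter signal from transgenic T. cruzi replicating inside host cells; inhibitors lower the luminescence signal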
[2] = NIH3T3 cell viability loss – ATP luminescence, mouse fibroblasts, counter-screen, dose response (AID 2010); type: functional, cell-based;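 also: cells exposed to compound for about 90 hours before reading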
Streptococcus = assay: GAS UMAA2166 growth inhibition – luminescence, BacTiterGlo, counter-screen for streptokinase expression inhibitor project, dose response (AID 1915); type: functional, organism-based;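 also: potency for reduction of bacterial viability or growth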
[3] = tested on: Streptococcus sp. 'group A'; assay: Streptococcus pyogenes SK(-)GAS viability under kanamycin – luminescence, BacTiterGlo, confirmation, counter-screen for streptokinase expression inhibitor project, dose response (AID 1900); type: functional, organism-based
Cytochrome P450 2C19 = Cytochrome P450 2C19 (Homo sapiens, UniProt P33261); assay: Cytochrome panel assay with activity outcomes. Panel member name: p450-cyp2c19 Compounds with AC50 equal or less than 10 uM are considered active; type: functional
Sequence of Cytochrome P450 2C19 (P33261 whole entry): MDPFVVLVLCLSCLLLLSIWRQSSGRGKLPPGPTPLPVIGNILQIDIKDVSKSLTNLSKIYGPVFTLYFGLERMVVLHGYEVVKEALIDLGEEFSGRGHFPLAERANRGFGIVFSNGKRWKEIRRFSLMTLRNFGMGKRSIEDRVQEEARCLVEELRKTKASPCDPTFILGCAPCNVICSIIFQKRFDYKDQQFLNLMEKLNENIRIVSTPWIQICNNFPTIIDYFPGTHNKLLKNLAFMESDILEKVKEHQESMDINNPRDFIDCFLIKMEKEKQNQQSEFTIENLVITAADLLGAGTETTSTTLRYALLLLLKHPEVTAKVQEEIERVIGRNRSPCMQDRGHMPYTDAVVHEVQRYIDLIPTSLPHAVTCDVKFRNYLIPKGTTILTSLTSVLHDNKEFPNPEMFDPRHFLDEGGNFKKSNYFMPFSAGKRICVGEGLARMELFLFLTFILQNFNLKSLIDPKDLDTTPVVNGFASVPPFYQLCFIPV

CC(C)(C)c1csc(NC2=NS(=O)(=O)c3ccccc32)n1
EC50 (H4): > 120 µM (not active)

COc1cccc(Cn2c(=O)c(-c3cccc(C#N)c3)nc3cnc(N4CCN(C)CC4)nc32)c1
AC50 (Cytochrome P450 3A4): 25.1 µM (inconclusive)

Cn1cccc1C(=O)N1CCC[C@@]2(CCN(Cc3nccs3)C2)C1
AC50 (Cytochrome P450 2C9): 31.6 µM (inconclusive) | AC50 (Cytochrome P450 2D6): 31.6 µM (inconclusive)

COc1cc(/C=N/NC(=O)c2nc3ccccn3c2C)cc(OC)c1O
EC50 [1]: > 60 µM (not active) | EC50 [2]: > 60 µM (not active)

CC(C(=O)Nc1ccc(F)c(F)c1F)N(C)CC(=O)Nc1ccccc1Br (centres undefined)
EC50 [1]: 1.71 µM (active) | EC50 [2]: > 60 µM (not active)

N=C1/C(=N/Nc2cccc(Cl)c2)C(=O)NN1c1ccccc1
AC50 (Cytochrome P450 2C9): 1.26 µM (inconclusive)

O=C(NC1CCCCC1)C(=S)NC1CCCCC1
EC50 (H4): 2.43 µM (active)

COc1ccc(C2CC(c3ccc(C)cc3)Nc3nc(N)nn32)cc1 (centres undefined)
EC50 [1]: 7.21 µM (active) | EC50 [2]: > 60 µM (not active)

CC(=O)OCC1=C(C(=O)O)N2C(=O)C(NC(=O)C(C)Cn3nc(C)c(Cl)c3C)C2SC1 (centres undefined)
EC50 (Streptococcus): 5.07 µM (active) | EC50 [3]: 3.56 µM (active)

CCNc1ncc2nc(-c3ccc(Cl)cc3)c(=O)n(Cc3cccs3)c2n1
AC50 (Cytochrome P450 2C9): 31.6 µM (inconclusive) | AC50 (Cytochrome P450 2D6): 25.1 µM (inconclusive)

COc1ccc(/C=N/NC(N)=S)cc1OC(=O)c1cccc2ccccc12
AC50 (Cytochrome P450 2C9): 6.31 µM (inconclusive)

CCC(NC(=O)c1ccc([N+](=O)[O-])cc1[N+](=O)[O-])c1ccccc1 (centres undefined)
EC50 [1]: 0.879 µM (active) | EC50 [2]: > 60 µM (not active)

N#CCCn1c(=O)c(-c2ccccc2)nc2cnc(OCc3ccccc3)nc21
AC50 (Cytochrome P450 2C19; read-out: AC50): 39.8 µM (inconclusive) | AC50 (Cytochrome P450 3A4): 7.94 µM (inconclusive)

CCCc1nn2c(O)c(C(c3ccc(C)cc3)c3c(O)n4nc(CCC)sc4nc3=O)c(=O)nc2s1
AC50 (Cytochrome P450 2C9): 12.6 µM (inconclusive)

Cc1cc(N/N=C/c2ccc(Cl)cc2)nc(NCc2ccccc2)n1
EC50 [1]: 1.82 µM (active) | EC50 [2]: 11.4 µM (active)

CC(C(=O)NC1C(=O)N2C(C(=O)O)=C(CSc3nnnn3C)CSC12)n1cc(Br)cn1 (centres undefined)
EC50 (Streptococcus): 0.125 µM (active) | EC50 [3]: 0.101 µM (active)

COc1ccc(C=O)cc1COc1ccc(C)cc1[N+](=O)[O-]
AC50 (Cytochrome P450 2C9): 4.47 µM (inconclusive) | AC50 (Cytochrome P450 2D6): 14.1 µM (inconclusive)

CCN(CC)CCN(C(=O)C1=COCCO1)c1nc2ccc(C)cc2s1
EC50 [1]: 0.384 µM (active) | EC50 [2]: > 60 µM (not active)

CCOC(=O)Cn1nnc2c(sc3nc4c(c(-c5ccc(Cl)cc5)c32)CCC4)c1=O
AC50 (Cytochrome P450 2C19; read-out: AC50): 7.08 µM (inconclusive)

C/C(CCN1CCCCc2nc(C)c(C)cc21)=N\OC[C@@H](C)[C@H](OCc1ccccc1)C(C)C
AC50 (Cytochrome P450 3A4): 3.16 µM (inconclusive)

O=c1c(-c2ccc(F)cc2)nc2cnc(N3CCNCC3)nc2n1Cc1ccc(F)cc1
AC50 (Cytochrome P450 2C9): 31.6 µM (inconclusive) | AC50 (Cytochrome P450 2C19; read-out: AC50): 39.8 µM (inconclusive) | AC50 (Cytochrome P450 2D6): 20 µM (inconclusive)

Cc1cc(-c2cc(C)c(O)c(C(C)(C)C)c2)cc(C(C)(C)C)c1O
AC50 (Cytochrome P450 2C9): 5.01 µM (inconclusive)

CC(NCC(O)COC1CCC(C(C)(C)C)CC1)c1ccccc1 (centres undefined)
EC50 [1]: 0.114 µM (active) | EC50 [2]: > 60 µM (not active)

CCCc1ccc(Oc2cc(C)nc(N3CCOCC3)n2)cc1
AC50 (Cytochrome P450 2D6): 14.1 µM (inconclusive)

O=C(NCCc1ccccc1)C(=O)NN=C1CCCC1
AC50 (Cytochrome P450 2C19; read-out: AC50): 0.355 µM (inconclusive) | AC50 (Cytochrome P450 3A4): 31.6 µM (inconclusive)

COc1ccccc1N1CCN(C(=O)c2ccc3[nH]c4c(c3c2)CC(C)CC4)CC1 (centres undefined)
EC50 [1]: 2 µM (active) | EC50 [2]: > 60 µM (not active)

Cc1ccc(S(=O)(=O)N(C)CC(=O)ONC(=N)c2ccccn2)cc1
AC50 (Cytochrome P450 2C19): inconclusive | AC50 (Cytochrome P450 3A4): 22.4 µM (inconclusive)

COc1ccc(C(=O)c2c[nH]c(C(=O)NCc3cccs3)c2)cc1
AC50 (Cytochrome P450 2C9): 0.251 µM (inconclusive)

CO[C@H]1COC(=O)[C@@H](Cc2ccccc2)NC(=O)[C@@H](C)COC(=O)C/C=C\[C@@H]1C
AC50 (Cytochrome P450 3A4): 6.31 µM (inconclusive)

CO[C@H]1C=CO[C@@]2(C)Oc3c(C)c(O)c4c(O)c(c5c(c4c3C2=O)=NC2(CCN(CC(C)C)CC2)N=5)NC(=O)C(C)=CC=C[C@H](C)[C@H](O)[C@@H](C)[C@@H](O)[C@@H](C)[C@H](OC(C)=O)[C@@H]1C
EC50 (Streptococcus): < 0.06 µM (active) | EC50 [3]: < 0.06 µM (active)
